Test results reported in patent US10597388B2, “Pyridazinone herbicides” (FMC CORPORATION, priority 2014, dated 2020).

Legend:
Format in all cases: in vivo
[1] = test system: barnyardgrass (Echinochloa crus-galli); test: Test A greenhouse herbicide test, pre- and postemergence
Procedure, shortened: (§1)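 Seeds sown in loam–sand blend got a preemergence directed soil spray of compound in non-phytotoxic solvent with surfactant. Postemergence treatment was given at 2–10 cm, one- to two-leaf stage. After ~10 d in greenhouse, injury was rated visually vs untreated controls, 0 (no effect) to 100 (complete control).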

[2] = test system: corn (Zea mays); test: as above; settings: Postemergence
Procedure, shortened: as §1

[3] = test system: foxtail, giant (giant foxtail, Setaria faberii); test: as above
Procedure, shortened: as §1

[4] = test system: kochia (Kochia scoparia); test: as above
Procedure, shortened: as §1

[5] = test system: pigweed (Amaranthus retroflexus); test: as above
Procedure, shortened: as §1

[6] = test system: ragweed (common ragweed, Ambrosia elatior); test: as above
Procedure, shortened: as §1

[7] = test system: ryegrass, Italian (Italian ryegrass, Lolium multiflorum); test: as above
Procedure, shortened: as §1

[8] = test system: wheat (Triticum aestivum); test: as above; settings: Postemergence
Procedure, shortened: as §1

[9] = test system: blackgrass (Alopecurus myosuroides); test: Test A greenhouse herbicide test, postemergence
Procedure, shortened: (§2)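 Plants grown in loam soil/sand blend pots were treated postemergence at 2 to 10 cm height, one- to two-leaf stage, with formulated test chemicals. After approximately 10 d in a greenhouse, injury was rated visually against untreated controls on a 0 to 100 scale (0 no effect, 100 complete control).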

[10] = test system: galium (catchweed bedstraw, Galium aparine); test: Test A greenhouse herbicide test, postemergence
Procedure, shortened: as §2

[11] = test system: barnyardgrass (Echinochloa crus-galli); test: Test B flooded paddy test; settings: 250 g ai/ha, Flood; visual rating on scale of 0 to 100 where 0 is no effect and 100 is complete control; 13 to 15 d after treatment
Procedure, shortened: (§3)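 Plants at the 2-leaf stage were flooded to 3 cm above soil, and test compounds were applied directly into the paddy water, which was held at that depth throughout. After 13 to 15 d in a greenhouse, injury was rated visually against untreated controls on a 0–100 scale (0 no effect, 100 complete control).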

[12] = test system: ducksalad (Heteranthera limosa); test: Test B flooded paddy test; settings: 250 g ai/ha, Flood; visual rating on scale of 0 to 100 where 0 is no effect and 100 is complete control; 13 to 15 d after treatment
Procedure, shortened: as §3

[13] = test system: rice (Oryza sativa); test: Test B flooded paddy test; settings: 250 g ai/ha, Flood; visual rating on scale of 0 to 100 where 0 is no effect and 100 is complete control; 13 to 15 d after treatment
Procedure, shortened: as §3

[14] = test system: sedge, umbrella (small-flower umbrella sedge, Cyperus difformis); test: Test B flooded paddy test; settings: 250 g ai/ha, Flood; visual rating on scale of 0 to 100 where 0 is no effect and 100 is complete control; 13 to 15 d after treatment
Procedure, shortened: as §3

[15] = Postemergence, 125 g ai/ha, 0 to 100 scale, 0 no effect, 100 complete control
[16] = Postemergence, 500 g ai/ha, visual rating after approx. 10 d, 0 to 100 scale (0 no effect, 100 complete control)
[17] = Preemergence, 125 g ai/ha, visual injury rating, 0 to 100 scale (0 no effect, 100 complete control), approx. 10 d
[18] = Preemergence, 500 g ai/ha, 0 to 100 scale where 0 is no effect and 100 is complete control
[19] = 125 g ai/ha, 0 to 100 scale, 0 no effect, 100 complete control
[20] = 500 g ai/ha, visual rating after approx. 10 d, 0 to 100 scale (0 no effect, 100 complete control)

SMILES	Plant response rating, Barnyardgrass [1, 15]	Plant response rating, Barnyardgrass [1, 16]	Plant response rating, Barnyardgrass [1, 17]	Plant response rating, Barnyardgrass [1, 18]	Plant response rating, Corn [2, 19]	Plant response rating, Corn [2, 20]	Plant response rating, Foxtail, Giant [3, 15]	Plant response rating, Foxtail, Giant [3, 16]	Plant response rating, Foxtail, Giant [3, 17]	Plant response rating, Foxtail, Giant [3, 18]	Plant response rating, Kochia [4, 15]	Plant response rating, Kochia [4, 16]	Plant response rating, Kochia [4, 17]	Plant response rating, Kochia [4, 18]	Plant response rating, Pigweed [5, 15]	Plant response rating, Pigweed [5, 16]	Plant response rating, Pigweed [5, 17]	Plant response rating, Pigweed [5, 18]	Plant response rating, Ragweed [6, 15]	Plant response rating, Ragweed [6, 16]	also measured
Cc1nn(C)c(=O)c(-c2ccc(Cl)c3ccccc23)c1OC(=O)C(F)(F)F [Compound 159]	40	80	50	80	20	40	50	80	60	80	100	100	100	100	60	80	100	100	100	100	Plant response rating, Ragweed [6, 17]: 80; Plant response rating, Ragweed [6, 18]: 80; Plant response rating, Ryegrass, Italian [7, 15]: 100; Plant response rating, Ryegrass, Italian [7, 16]: 100; Plant response rating, Ryegrass, Italian [7, 17]: 100; Plant response rating, Ryegrass, Italian [7, 18]: 100; Plant response rating, Wheat [8, 19]: 0; Plant response rating, Wheat [8, 20]: 30; Plant response rating, Blackgrass [9, 19]: 70; Plant response rating, Blackgrass [9, 20]: 70; Plant response rating, Galium [10, 19]: 100; Plant response rating, Galium [10, 20]: 100; Plant response rating, Barnyardgrass [11]: 0; Plant response rating, Ducksalad [12]: 0; Plant response rating, Rice [13]: 0; Plant response rating, Sedge, Umbrella [14]: 50
CCOC(=O)Oc1c(C)nn(C)c(=O)c1-c1c([N+](=O)[O-])ccc2ccccc12 [Compound 166]	10	20	10	10	20	20	10	40	10	30	50	70	30	90	40	80	80	90	30	70	Plant response rating, Ragweed [6, 17]: 70; Plant response rating, Ragweed [6, 18]: 90; Plant response rating, Ryegrass, Italian [7, 15]: 40; Plant response rating, Ryegrass, Italian [7, 16]: 90; Plant response rating, Ryegrass, Italian [7, 17]: 40; Plant response rating, Ryegrass, Italian [7, 18]: 90; Plant response rating, Wheat [8, 19]: 0; Plant response rating, Wheat [8, 20]: 20; Plant response rating, Blackgrass [9, 19]: 10; Plant response rating, Blackgrass [9, 20]: 30; Plant response rating, Galium [10, 19]: 70; Plant response rating, Galium [10, 20]: 90; Plant response rating, Barnyardgrass [11]: 0; Plant response rating, Ducksalad [12]: 0; Plant response rating, Rice [13]: 0; Plant response rating, Sedge, Umbrella [14]: 0
Cc1nn(C)c(=O)c(-c2c([N+](=O)[O-])ccc3ccccc23)c1OC(=O)C1CC1 [Compound 167]	20	20	10	20	0	20	20	40	10	20	50	70	60	100	70	80	100	100	60	70	Plant response rating, Ragweed [6, 17]: 70; Plant response rating, Ragweed [6, 18]: 80; Plant response rating, Ryegrass, Italian [7, 15]: 70; Plant response rating, Ryegrass, Italian [7, 16]: 80; Plant response rating, Ryegrass, Italian [7, 17]: 80; Plant response rating, Ryegrass, Italian [7, 18]: 100; Plant response rating, Wheat [8, 19]: 0; Plant response rating, Wheat [8, 20]: 0; Plant response rating, Blackgrass [9, 19]: 20; Plant response rating, Blackgrass [9, 20]: 40; Plant response rating, Galium [10, 19]: 70; Plant response rating, Galium [10, 20]: 90; Plant response rating, Barnyardgrass [11]: 0; Plant response rating, Ducksalad [12]: 0; Plant response rating, Rice [13]: 0; Plant response rating, Sedge, Umbrella [14]: 0
Cc1nn(Cc2ccccc2)c(=O)c(-c2cccc3ccccc23)c1O [Compound 168]	0	40	0	20	0	20	30	40	0	40	20	20	0	0	0	40	0	0	0	0	Plant response rating, Ragweed [6, 17]: 0; Plant response rating, Ragweed [6, 18]: 0; Plant response rating, Ryegrass, Italian [7, 15]: 60; Plant response rating, Ryegrass, Italian [7, 16]: 60; Plant response rating, Ryegrass, Italian [7, 17]: 0; Plant response rating, Ryegrass, Italian [7, 18]: 40; Plant response rating, Wheat [8, 19]: 0; Plant response rating, Wheat [8, 20]: 20; Plant response rating, Blackgrass [9, 19]: 20; Plant response rating, Blackgrass [9, 20]: 30; Plant response rating, Galium [10, 19]: 0; Plant response rating, Galium [10, 20]: 30; Plant response rating, Barnyardgrass [11]: 0; Plant response rating, Ducksalad [12]: 40; Plant response rating, Rice [13]: 0; Plant response rating, Sedge, Umbrella [14]: 0
Cc1n[nH]c(=O)c(-c2cccc3ccccc23)c1OCC(F)F [Compound 173]	0	0	0	0	0	0	0	0	0	0	0	0	0	0	0	0	0	0	0	0	Plant response rating, Ragweed [6, 17]: 0; Plant response rating, Ragweed [6, 18]: 0; Plant response rating, Ryegrass, Italian [7, 15]: 0; Plant response rating, Ryegrass, Italian [7, 16]: 0; Plant response rating, Ryegrass, Italian [7, 17]: 0; Plant response rating, Ryegrass, Italian [7, 18]: 0; Plant response rating, Wheat [8, 19]: 0; Plant response rating, Wheat [8, 20]: 0; Plant response rating, Blackgrass [9, 19]: 0; Plant response rating, Blackgrass [9, 20]: 0; Plant response rating, Galium [10, 19]: 0; Plant response rating, Galium [10, 20]: 0; Plant response rating, Barnyardgrass [11]: 0; Plant response rating, Ducksalad [12]: 0; Plant response rating, Rice [13]: 0; Plant response rating, Sedge, Umbrella [14]: 0
